Data taken from ChEMBL document CHEMBL4828722, “The synthesis and bioactivity of pyrrolo[2,3-d]pyrimidine derivatives as tyrosine kinase inhibitors for NSCLC cells with EGFR mutations” (Eur J Med Chem, 2021).
Activity calls are given as the source filed them. The calls are words filed in the database; no cut-off is given here.

The compounds below were run on HCC827 (assay: Induction of cell cycle arrest in human HCC827 cells harboring EGFR del E746-A750 mutant assessed as accumulation of cells in S phase at 5 uM measured after 18 hrs by PI/RNaseA staining based flow cytometry analysis (Rvb= 33.62%)). Settings: not given.
Format: functional

| Compound | Activity |
| --- | --- |
| C=CC(=O)Nc1cccc(Oc2nc(Nc3ccc(N4CCN(C)CC4)c([N+](=O)[O-])c3)nc3[nH]ccc23)c1 | 4.36% |

These compounds were tested on NCI-H1975 (assay: Induction of cell cycle arrest in human NCI-H1975 cells harboring EGFR L858R/T790M mutant assessed as accumulation of cells in S phase at 0.5 uM measured after 18 hrs by PI/RNaseA staining based flow cytometry analysis (Rvb= 39.78%)). Settings: not given.
Format: functional

| Compound | Activity |
| --- | --- |
| C=CC(=O)Nc1cccc(Oc2nc(Nc3ccc(N4CCN(C)CC4)c([N+](=O)[O-])c3)nc3[nH]ccc23)c1 | 20.79% |

What follows are compounds tested on A549 (assay: Induction of cell cycle arrest in human A549 cells harboring wild type EGFR assessed as accumulation of cells in S phase at 0.5 uM measured after 18 hrs by PI/RNaseA staining based flow cytometry analysis (Rvb= 33.26%)). Settings: not given.
Format: functional

| Compound | Activity |
| --- | --- |
| C=CC(=O)Nc1cccc(Oc2nc(Nc3ccc(N4CCN(C)CC4)c([N+](=O)[O-])c3)nc3[nH]ccc23)c1 | 27.39% |

What follows are compounds tested on HBE (assay: Inhibition of AKT/S6 phosphorylation […] in human HBE cells at 5 uM incubated for 2 hrs by immunoblotting analysis). Settings: not given.
Format: cell-based

| Compound | inhibition |
| --- | --- |
| C=CC(=O)Nc1cccc(Oc2nc(Nc3ccc(N4CCN(C)CC4)c([N+](=O)[O-])c3)nc3[nH]ccc23)c1 | inactive |

Each compound was assayed on NCI-H1975 (assay: Induction of cell cycle arrest in human NCI-H1975 cells harboring EGFR L858R/T790M mutant assessed as accumulation of cells in S phase at 1 uM measured after 18 hrs by PI/RNaseA staining based flow cytometry analysis (Rvb= 39.78%)). Settings: not given.
Format: functional

| Compound | Activity |
| --- | --- |
| C=CC(=O)Nc1cccc(Oc2nc(Nc3ccc(N4CCN(C)CC4)c([N+](=O)[O-])c3)nc3[nH]ccc23)c1 | 13.11% |

What follows are compounds tested on A549 (assay: Induction of cell cycle arrest in human A549 cells harboring wild type EGFR assessed as accumulation of cells in S phase at 1 uM measured after 18 hrs by PI/RNaseA staining based flow cytometry analysis (Rvb= 33.26%)). Settings: not given.
Format: functional

| Compound | Activity |
| --- | --- |
| C=CC(=O)Nc1cccc(Oc2nc(Nc3ccc(N4CCN(C)CC4)c([N+](=O)[O-])c3)nc3[nH]ccc23)c1 | 21.21% |

Each compound was assayed on HCC827 (assay: Induction of cell cycle arrest in human HCC827 cells harboring EGFR del E746-A750 mutant assessed as accumulation of cells in S phase at 1 uM measured after 18 hrs by PI/RNaseA staining based flow cytometry analysis (Rvb= 33.62%)). Settings: not given.
Format: functional

| Compound | Activity |
| --- | --- |
| C=CC(=O)Nc1cccc(Oc2nc(Nc3ccc(N4CCN(C)CC4)c([N+](=O)[O-])c3)nc3[nH]ccc23)c1 | 10.81% |

What follows are compounds tested against MAP kinase p38 (Homo sapiens) (UniProt O15264+Q15759+Q16539+P53778) (assay: Inhibition of p38 MAPK phosphorylation at Thr180/Tyr182 residue in human HBE cells at 5 uM incubated for 2 hrs by immunoblotting analysis). Settings: not given.
Format: cell-based

| Compound | inhibition |
| --- | --- |
| C=CC(=O)Nc1cccc(Oc2nc(Nc3ccc(N4CCN(C)CC4)c([N+](=O)[O-])c3)nc3[nH]ccc23)c1 | Active |

Each compound was assayed on NCI-H1975 (assay: Induction of cell cycle arrest in human NCI-H1975 cells harboring EGFR L858R/T790M mutant assessed as accumulation of cells in G2/M phase at 1 uM measured after 18 hrs by PI/RNaseA staining based flow cytometry analysis (Rvb= 17.33%)). Settings: not given.
Format: functional

| Compound | Activity |
| --- | --- |
| C=CC(=O)Nc1cccc(Oc2nc(Nc3ccc(N4CCN(C)CC4)c([N+](=O)[O-])c3)nc3[nH]ccc23)c1 | 14.81% |

These compounds were tested against Ribosomal protein S6 kinase beta-1 (Homo sapiens) (UniProt P23443) (assay: Inhibition of P70S6K phosphorylation in human NCI-H1975 cells at 0.1 to 5 uM incubated for 2 hrs by immunoblotting analysis). Settings: dose 0.1-5 µM.
Format: cell-based

Ribosomal protein S6 kinase beta-1 (Homo sapiens), sequence (P23443 whole entry, looked up): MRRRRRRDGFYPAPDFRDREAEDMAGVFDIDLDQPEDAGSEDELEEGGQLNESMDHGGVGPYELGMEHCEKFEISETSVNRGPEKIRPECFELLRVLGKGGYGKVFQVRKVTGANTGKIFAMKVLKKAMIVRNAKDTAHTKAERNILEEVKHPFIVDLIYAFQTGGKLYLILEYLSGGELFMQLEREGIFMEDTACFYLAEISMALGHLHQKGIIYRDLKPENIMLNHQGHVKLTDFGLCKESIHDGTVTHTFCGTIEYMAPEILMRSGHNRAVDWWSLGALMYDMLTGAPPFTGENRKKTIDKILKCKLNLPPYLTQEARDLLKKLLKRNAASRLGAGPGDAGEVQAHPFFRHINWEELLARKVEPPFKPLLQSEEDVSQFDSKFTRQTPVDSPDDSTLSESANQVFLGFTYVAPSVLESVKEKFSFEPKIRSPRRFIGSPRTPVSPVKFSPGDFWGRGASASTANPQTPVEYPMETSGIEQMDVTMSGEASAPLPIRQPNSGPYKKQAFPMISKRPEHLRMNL

| Compound | inhibition |
| --- | --- |
| C=CC(=O)Nc1cccc(Oc2nc(Nc3ccc(N4CCN(C)CC4)c([N+](=O)[O-])c3)nc3[nH]ccc23)c1 | Active |

The compounds below were run on HCC827 (assay: Induction of apoptosis in human HCC827 cells harboring EGFR del E746-A750 mutant assessed as total apoptotic cells at 5 uM measured after 18 hrs by Annexin V-FITC/PI staining based flow cytometry analysis (Rvb= 10.8%)). Settings: not given.
Format: functional

| Compound | Activity |
| --- | --- |
| C=CC(=O)Nc1cccc(Oc2nc(Nc3ccc(N4CCN(C)CC4)c([N+](=O)[O-])c3)nc3[nH]ccc23)c1 | 30.3% |

These compounds were tested on NCI-H1975 (assay: Induction of cell cycle arrest in human NCI-H1975 cells harboring EGFR L858R/T790M mutant assessed as accumulation of cells in G2/M phase at 0.5 uM measured after 18 hrs by PI/RNaseA staining based flow cytometry analysis (Rvb= 17.33%)). Settings: not given.
Format: functional

| Compound | Activity |
| --- | --- |
| C=CC(=O)Nc1cccc(Oc2nc(Nc3ccc(N4CCN(C)CC4)c([N+](=O)[O-])c3)nc3[nH]ccc23)c1 | 14.32% |

The compounds below were run on NCI-H1975 (assay: Induction of apoptosis in human NCI-H1975 cells harboring EGFR L858R/T790M mutant assessed as live cells at 5 uM measured after 18 hrs by Annexin V-FITC/PI staining based flow cytometry analysis (Rvb= 89.4%)). Settings: not given.
Format: functional

| Compound | Activity |
| --- | --- |
| C=CC(=O)Nc1cccc(Oc2nc(Nc3ccc(N4CCN(C)CC4)c([N+](=O)[O-])c3)nc3[nH]ccc23)c1 | 84.7% |

Each compound was assayed on A549 (assay: Induction of cell cycle arrest in human A549 cells harboring wild type EGFR assessed as accumulation of cells in G2/M phase at 0.5 uM measured after 18 hrs by PI/RNaseA staining based flow cytometry analysis (Rvb= 8.47%)). Settings: not given.
Format: functional

| Compound | Activity |
| --- | --- |
| C=CC(=O)Nc1cccc(Oc2nc(Nc3ccc(N4CCN(C)CC4)c([N+](=O)[O-])c3)nc3[nH]ccc23)c1 | 9.99% |

The compounds below were run on HCC827 (assay: Induction of cell cycle arrest in human HCC827 cells harboring EGFR del E746-A750 mutant assessed as accumulation of cells in G2/M phase at 1 uM measured after 18 hrs by PI/RNaseA staining based flow cytometry analysis (Rvb= 16.78%)). Settings: not given.
Format: functional

| Compound | Activity |
| --- | --- |
| C=CC(=O)Nc1cccc(Oc2nc(Nc3ccc(N4CCN(C)CC4)c([N+](=O)[O-])c3)nc3[nH]ccc23)c1 | 11.55% |

Each compound was assayed on BEAS-2B (assay: Cytotoxicity against human BEAS-2B cells assessed as reduction in cell viability measured after 48 hrs by CCK8 assay). Settings: not given.
Format: cell-based

| Compound | IC50 |
| --- | --- |
| C=CC(=O)Nc1cccc(Oc2nc(Nc3ccc(N4CCN(C)CC4)c([N+](=O)[O-])c3)nc3[nH]ccc23)c1 | 3.68 µM |

What follows are compounds tested on NCI-H1975 (assay: Induction of apoptosis in human NCI-H1975 cells harboring EGFR L858R/T790M mutant assessed as early apoptotic cells at 5 uM measured after 18 hrs by Annexin V-FITC/PI staining based flow cytometry analysis (Rvb= […])). Settings: not given.
Format: functional

| Compound | Activity |
| --- | --- |
| C=CC(=O)Nc1cccc(Oc2nc(Nc3ccc(N4CCN(C)CC4)c([N+](=O)[O-])c3)nc3[nH]ccc23)c1 | 13.2% |

The compounds below were run on NCI-H1975 (assay: Induction of apoptosis in human NCI-H1975 cells harboring EGFR L858R/T790M mutant assessed as dead cells at 0.5 uM measured after 18 hrs by Annexin V-FITC/PI staining based flow cytometry analysis (Rvb= […])). Settings: not given.
Format: functional

| Compound | Activity |
| --- | --- |
| C=CC(=O)Nc1cccc(Oc2nc(Nc3ccc(N4CCN(C)CC4)c([N+](=O)[O-])c3)nc3[nH]ccc23)c1 | 2% |

Each compound was assayed on HCC827 (assay: Induction of apoptosis in human HCC827 cells harboring EGFR del E746-A750 mutant assessed as late apoptotic cells at 0.5 uM measured after 18 hrs by Annexin V-FITC/PI staining based flow cytometry analysis (Rvb= 1.2%)). Settings: not given.
Format: functional

| Compound | Activity |
| --- | --- |
| C=CC(=O)Nc1cccc(Oc2nc(Nc3ccc(N4CCN(C)CC4)c([N+](=O)[O-])c3)nc3[nH]ccc23)c1 | 11.4% |

These compounds were tested against Ribosomal protein S6 kinase beta-1 (Homo sapiens) (UniProt P23443) (assay: Inhibition of P70S6K phosphorylation in human HCC827 cells at 0.1 to 5 uM incubated for 2 hrs by immunoblotting analysis). Settings: dose 0.1-5 µM.
Format: cell-based

| Compound | inhibition |
| --- | --- |
| C=CC(=O)Nc1cccc(Oc2nc(Nc3ccc(N4CCN(C)CC4)c([N+](=O)[O-])c3)nc3[nH]ccc23)c1 | Active |

These compounds were tested on A549 (assay: Induction of cell cycle arrest in human A549 cells harboring wild type EGFR assessed as accumulation of cells in G2/M phase at 5 uM measured after 18 hrs by PI/RNaseA staining based flow cytometry analysis (Rvb= 8.47%)). Settings: not given.
Format: functional

| Compound | Activity |
| --- | --- |
| C=CC(=O)Nc1cccc(Oc2nc(Nc3ccc(N4CCN(C)CC4)c([N+](=O)[O-])c3)nc3[nH]ccc23)c1 | 9.25% |

Each compound was assayed on A549 (assay: Cytotoxicity against human A549 cells harboring wild type EGFR assessed as reduction in cell viability measured after 48 hrs by CCK8 assay). Settings: A549, 48 h.
Format: functional, cell-based

| Compound | IC50 |
| --- | --- |
| C=CC(=O)Nc1cccc(Oc2nc(Nc3ccc(N4CCN(C)CC4)c([N+](=O)[O-])c3)nc3[nH]ccc23)c1 | 2900 nM |

Each compound was assayed on HCC827 (assay: Induction of apoptosis in human HCC827 cells harboring EGFR del E746-A750 mutant assessed as live cells at 0.5 uM measured after 18 hrs by Annexin V-FITC/PI staining based flow cytometry analysis (Rvb= 87.5%)). Settings: not given.
Format: functional

| Compound | Activity |
| --- | --- |
| C=CC(=O)Nc1cccc(Oc2nc(Nc3ccc(N4CCN(C)CC4)c([N+](=O)[O-])c3)nc3[nH]ccc23)c1 | 68.2% |

These compounds were tested on NCI-H1975 (assay: Induction of apoptosis in human NCI-H1975 cells harboring EGFR L858R/T790M mutant assessed as early apoptotic cells at 0.5 uM measured after 18 hrs by Annexin V-FITC/PI staining based flow cytometry analysis (Rvb= […])). Settings: not given.
Format: functional

| Compound | Activity |
| --- | --- |
| C=CC(=O)Nc1cccc(Oc2nc(Nc3ccc(N4CCN(C)CC4)c([N+](=O)[O-])c3)nc3[nH]ccc23)c1 | 12.4% |

The compounds below were run on HCC827 (assay: Induction of cell cycle arrest in human HCC827 cells harboring EGFR del E746-A750 mutant assessed as accumulation of cells in G0/G1 phase at 5 uM measured after 18 hrs by PI/RNaseA staining based flow cytometry analysis (Rvb= 49.60%)). Settings: not given.
Format: functional

| Compound | Activity |
| --- | --- |
| C=CC(=O)Nc1cccc(Oc2nc(Nc3ccc(N4CCN(C)CC4)c([N+](=O)[O-])c3)nc3[nH]ccc23)c1 | 81.52% |

These compounds were tested on HCC827 (assay: Induction of cell cycle arrest in human HCC827 cells harboring EGFR del E746-A750 mutant assessed as accumulation of cells in G2/M phase at 0.5 uM measured after 18 hrs by PI/RNaseA staining based flow cytometry analysis (Rvb= 16.78%)). Settings: not given.
Format: functional

| Compound | Activity |
| --- | --- |
| C=CC(=O)Nc1cccc(Oc2nc(Nc3ccc(N4CCN(C)CC4)c([N+](=O)[O-])c3)nc3[nH]ccc23)c1 | 8.5% |

What follows are compounds tested on HCC827 (assay: Inhibition of AKT phosphorylation in human HCC827 cells at 0.1 to 5 uM incubated for 2 hrs by immunoblotting analysis). Settings: dose 0.1-5 µM.
Format: cell-based

| Compound | inhibition |
| --- | --- |
| C=CC(=O)Nc1cccc(Oc2nc(Nc3ccc(N4CCN(C)CC4)c([N+](=O)[O-])c3)nc3[nH]ccc23)c1 | Active |

Each compound was assayed on HCC827 (assay: Induction of apoptosis in human HCC827 cells harboring EGFR del E746-A750 mutant assessed as dead cells at 5 uM measured after 18 hrs by Annexin V-FITC/PI staining based flow cytometry analysis (Rvb= […])). Settings: not given.
Format: functional

| Compound | Activity |
| --- | --- |
| C=CC(=O)Nc1cccc(Oc2nc(Nc3ccc(N4CCN(C)CC4)c([N+](=O)[O-])c3)nc3[nH]ccc23)c1 | 2.5% |
